Experimental data from US10280198B2, “Therapeutic agents for reducing parathyroid hormone levels” (KAI PHARMACEUTICALS, INC., priority 2009, dated 2019).
Where two headings read alike, the source gives them in different places. Square brackets hold non-standard residues; d marks the D form. Peptide text beside a SMILES is read from it. βAla = NCCC(=O)O

Columns and labels:
[1] = molecular target: T1, human calcium-sensing receptor (CaSR) (Homo sapiens, UniProt P41180); assay: In vitro cell assay in HEK-293 expressing the human calcium-sensing receptor (IP1 production); type: cell-based
T1 construct: expressed in transfected cells; host or cells: HEK 293T cells, transiently transfected (lipofectamine 2000); in some cases HEK293 cells stably transfected
T1 sequence (P41180 20-1078): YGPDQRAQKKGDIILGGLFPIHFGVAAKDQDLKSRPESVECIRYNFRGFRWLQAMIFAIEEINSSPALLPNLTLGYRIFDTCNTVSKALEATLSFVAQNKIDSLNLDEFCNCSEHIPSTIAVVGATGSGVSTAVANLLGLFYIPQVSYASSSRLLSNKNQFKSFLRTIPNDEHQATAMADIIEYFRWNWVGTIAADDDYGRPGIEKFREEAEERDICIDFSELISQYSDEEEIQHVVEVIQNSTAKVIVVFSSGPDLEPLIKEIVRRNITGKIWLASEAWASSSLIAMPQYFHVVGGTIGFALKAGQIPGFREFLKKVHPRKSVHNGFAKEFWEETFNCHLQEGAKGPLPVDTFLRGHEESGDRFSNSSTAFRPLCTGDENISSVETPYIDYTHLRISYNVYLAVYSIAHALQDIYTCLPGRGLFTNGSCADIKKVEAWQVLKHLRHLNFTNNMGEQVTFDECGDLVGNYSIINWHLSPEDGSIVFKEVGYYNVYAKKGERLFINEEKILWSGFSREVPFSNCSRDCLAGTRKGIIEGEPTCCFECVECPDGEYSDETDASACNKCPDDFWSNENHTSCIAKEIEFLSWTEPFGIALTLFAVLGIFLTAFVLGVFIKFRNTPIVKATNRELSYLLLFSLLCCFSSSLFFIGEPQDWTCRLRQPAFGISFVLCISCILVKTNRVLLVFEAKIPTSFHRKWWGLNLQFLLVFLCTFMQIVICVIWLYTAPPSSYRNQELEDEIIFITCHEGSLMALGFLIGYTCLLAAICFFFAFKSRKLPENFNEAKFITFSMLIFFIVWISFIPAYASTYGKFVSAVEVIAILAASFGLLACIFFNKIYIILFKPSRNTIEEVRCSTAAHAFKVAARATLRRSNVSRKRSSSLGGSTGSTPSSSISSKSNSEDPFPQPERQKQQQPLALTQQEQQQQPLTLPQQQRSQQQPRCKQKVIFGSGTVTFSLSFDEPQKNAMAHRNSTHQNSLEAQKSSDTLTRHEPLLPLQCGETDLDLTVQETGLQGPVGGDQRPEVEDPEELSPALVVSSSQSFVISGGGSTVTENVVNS
Protocol: The activity of a variety of peptides and conjugates was tested against the human CaSR. These studies were conducted by measuring IP1 production in HEK293 cells that express the human CaSR. Each peptide was tested in eight different concentrations, in duplicates, to establish a dose response curve. Curve fitting was performed using GraphPad Prism. In Table 5, and throughout the specification, residues provided in capital letters are L-amino acids, while lower case letters indicate D-amino acids. “Ac” indicates an acetyl capping group, “NH2” indicates an amide capping group, “Ac-bAla” is an acetylated beta-alanine, “GSH” indicates reduced glutathione, “GS” indicates oxidized glutathione, “PEG” refers to polyethylene glycol, “PEG2” and “PEGS” refer to polyethylene glycol moieties of 2 kDa and 5 kDa, respectively, and “Mpa” refers to mercaptopropionic acid.
The day after, these cells were transfected with human CaSR receptor using lipofectamine 2000 transfection reagent 24 hrs post transfection, cells were seeded in 384 well plates at 8,000 cells/well. […] In some cases, EC50 values were determined by measuring inositol monophosphate production in the HEK293 cells, stably transfected with the human calcium-sensing receptor (see Table 1).
Cells were incubated with compounds at various concentrations (1 mM or 300 μM as the highest and further ½ log serial dilutions) at 37° C. for 1.5 hrs before reaction termination. […] In brief, incubation with the compound was terminated by sequentially adding D2 labeled-IP1 and cryptate-labeled anti-IP1 in lysis buffer and further incubating at room temperature for 60 minutes. […] Non-transfected 293 cells were used as negative control.
IP1 concentrations were calculated from standard curves (generated with Graph Pad Prism ver. 4) using known concentrations of IP1 standards.

[2] = system: rat peritoneal mast cells; assay: In vitro histamine induction in rat peritoneal mast cells; type: cell-based
How it was run: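 Mast cells from peritoneal lavage of Sprague Dawley rats were incubated with compound at 10 μM for 15 min at 37 °C in HBSS + 25 mM HEPES pH 7.4. Supernatant histamine measured by EIA; response expressed as fold change versus pre-incubation levels.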

plasma PTH = assay: In vivo PTH lowering after IV bolus in isoflurane-anesthetized normal Sprague Dawley rats; design: species or system rat; conditions: for 0.5 mg/kg IV bolus % PTH AUC of saline control: normal rats
How it was run: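 Peptides were given as a 0.5 mg/kg IV bolus to normal Sprague Dawley rats kept under isoflurane throughout, with saline bolus controls.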

[3] = Table 5, IP1 production in HEK293 cells expressing human CaSR, eight concentrations in duplicate, read-out: EC50 in CaSR in vitro assay

| Structure (SMILES) | EC50 [1, 3] [µM] | further results |
| --- | --- | --- |
| CC(=O)N[C@H](CCS)C(=O)N[C@H](CCCNC(=N)N)C(=O)N[C@H](CCCNC(=N)N)C(=O)N[C@H](CCCNC(=N)N)C(=O)N[C@H](CCCNC(=N)N)C(=O)N[C@H](CCCNC(=N)N)C(=O)N[C@H](CCCNC(=N)N)C(N)=O [SEQ ID NO: 32, Ac-dHcy-rrrrrr-NH2] | 2 | 0.5 mg/kg IV bolus % PTH AUC of saline control (plasma PTH; Table 3, AUC 1-4 h): 21% |
| CC(=O)NCCC(=O)N[C@H](CS)C(=O)N[C@H](CCCNC(=N)N)C(=O)N[C@H](CCCNC(=N)N)C(=O)N[C@H](CCCNC(=N)N)C(=O)N[C@H](CCCNC(=N)N)C(=O)N[C@H](CCCNC(=N)N)C(=O)N[C@H](CCCNC(=N)N)C(N)=O [SEQ ID NO: 30, Ac-bAla-crrrrrr-NH2] (Ac-[βAla][dC][dR][dR][dR][dR][dR][dR]-NH2) | 1 | 0.5 mg/kg IV bolus % PTH AUC of saline control (plasma PTH; Table 3, AUC 1-4 h): 0% |
| CC(=O)N[C@H](CS)C(=O)N[C@H](C)C(=O)N[C@H](C)C(=O)N[C@H](CCCNC(=N)N)C(=O)N[C@H](CCCNC(=N)N)C(=O)N[C@H](CCCNC(=N)N)C(=O)N[C@H](CCCNC(=N)N)C(=O)N[C@H](CCCNC(=N)N)C(=O)N[C@H](CCCNC(=N)N)C(N)=O [SEQ ID NO: 76, Ac-caarrrrrr-NH2] (Ac-[dC][dA][dA][dR][dR][dR][dR][dR][dR]-NH2) | 4.5 | – |
| CC(=O)N[C@H](CS)C(=O)N[C@H](CCCNC(=N)N)C(=O)N[C@H](C)C(=O)N[C@H](CCCNC(=N)N)C(=O)N[C@H](CCCNC(=N)N)C(=O)N[C@H](CCCNC(=N)N)C(=O)N[C@H](CCCNC(=N)N)C(N)=O [SEQ ID NO: 9, Ac-crarrrr-NH2] (Ac-[dC][dR][dA][dR][dR][dR][dR]-NH2) | 1 | EC50 ([1]; Table 1, IP1 in HEK293 cells expressing human CaSR, read-out: In vitro EC50): 1 µM; Histamine in vitro Fold change of non-treated at 10 uM [2]: 6.8 fold; % PTH reduction of baseline at 1 hour post IV admin. of 0.5 mg/kg compound (plasma PTH; Table 1, isoflurane-anesthetized normal rats, 0.5 mg/kg IV, 1 hour): 0%; 0.5 mg/kg IV bolus % PTH AUC of saline control (plasma PTH; Table 1, PTH at 1, 2, 3, 4 h, AUCcmpd treated/AUCsaline control*100): 7% |
| CC(=O)N[C@H](CSSCCC(=O)O)C(=O)N[C@H](C)C(=O)N[C@H](CCCNC(=N)N)C(=O)N[C@H](CCCNC(=N)N)C(=O)N[C@H](CCCNC(=N)N)C(=O)N[C@H](C)C(=O)N[C@H](CCCNC(=N)N)C(N)=O [SEQ ID NO: 56, Ac-c(Mpa)arrrar-NH2] | 21 | 0.5 mg/kg IV bolus % PTH AUC of saline control (plasma PTH; Table 8, AUC 1-4 h): 25% |
| CC(=O)N[C@@H](CS)C(=O)N[C@@H](Cc1ccc(O)cc1)C(=O)NCC(=O)N[C@@H](CCCNC(=N)N)C(=O)N[C@@H](CCCCN)C(=O)N[C@@H](CCCCN)C(=O)N[C@@H](CCCNC(=N)N)C(=O)N[C@@H](CCCNC(=N)N)C(=O)N[C@@H](CCC(N)=O)C(=O)N[C@@H](CCCNC(=N)N)C(=O)N[C@@H](CCCNC(=N)N)C(=O)N[C@@H](CCCNC(=N)N)C(N)=O [SEQ ID NO: 47] | 4.5 | – |
| N=C(N)NCCC[C@@H](NC(=O)[C@@H](CCCNC(=N)N)NC(=O)[C@@H](CCCNC(=N)N)NC(=O)[C@@H](CCCNC(=N)N)NC(=O)[C@@H](CCCNC(=N)N)NC(=O)[C@@H](CCCNC(=N)N)NC(=O)[C@H](N)CS)C(N)=O [SEQ ID NO: 80, crrrrrr-NH2] | 1.1 | – |
| CC(=O)N[C@H](CS)C(=O)N[C@H](CCCNC(=N)N)C(=O)N[C@H](CCCNC(=N)N)C(=O)N[C@H](CCCNC(=N)N)C(=O)N[C@H](CCCNC(=N)N)C(=O)N[C@H](CCCNC(=N)N)C(=O)N[C@H](CCCNC(=N)N)C(=O)N[C@H](CCCNC(=N)N)C(N)=O [SEQ ID NO: 7, Ac-crrrrrrr-NH2] (Ac-[dC][dR][dR][dR][dR][dR][dR][dR]-NH2) | 0.6 | – |
| CC(=O)N[C@H](CS)C(=O)N[C@H](C)C(=O)N[C@H](CCCNC(=N)N)C(=O)N[C@H](C)C(=O)N[C@H](CCCNC(=N)N)C(=O)N[C@H](C)C(=O)N[C@H](CCCNC(=N)N)C(=O)N[C@H](C)C(=O)N[C@H](CCCNC(=N)N)C(N)=O [SEQ ID NO: 78, Ac-carararar-NH2] (Ac-[dC][dA][dR][dA][dR][dA][dR][dA][dR]-NH2) | 5.3 | – |

Further lines, with some results ahead:

| EC50 [1, 3] [µM] | Structure (SMILES) | further results |
| --- | --- | --- |
| 62 | CC(=O)N[C@H](CS)C(=O)N[C@H](C)C(=O)N[C@H](CCCNC(=N)N)C(=O)N[C@H](CCCNC(=N)N)C(=O)N[C@H](CCCNC(=N)N)C(=O)N[C@H](CCC(=O)O)C(=O)N[C@H](CCCNC(=N)N)C(N)=O [SEQ ID NO: 68, Ac-carrrer-NH2] (Ac-[dC][dA][dR][dR][dR][dE][dR]-NH2) | Histamine in vitro Fold change of non-treated at 10 uM [2]: 1.3 fold; 0.5 mg/kg IV bolus % PTH AUC of saline control (plasma PTH; Table 6, AUC 1-4 h): 81% |
| 31 | CC(=O)N[C@H](CS)C(=O)N[C@H](CCC(=O)O)C(=O)N[C@H](CCCNC(=N)N)C(=O)N[C@H](CCCNC(=N)N)C(=O)N[C@H](CCCNC(=N)N)C(=O)N[C@H](C)C(=O)N[C@H](CCCNC(=N)N)C(N)=O [SEQ ID NO: 69, Ac-cerrrar-NH2] (Ac-[dC][dE][dR][dR][dR][dA][dR]-NH2) | 0.5 mg/kg IV bolus % PTH AUC of saline control (plasma PTH; Table 6, AUC 1-4 h): 103% |
| 31 | CC(=O)N[C@H](CS)C(=O)N[C@H](C)C(=O)N[C@H](CCCNC(=N)N)C(=O)N[C@H](CCCCN)C(=O)N[C@H](CCCNC(=N)N)C(=O)N[C@H](C)C(=O)N[C@H](CCCNC(=N)N)C(N)=O [SEQ ID NO: 73, Ac-carkrar-NH2] (Ac-[dC][dA][dR][dK][dR][dA][dR]-NH2) | Histamine in vitro Fold change of non-treated at 10 uM [2]: 1.4 fold |
| 35 | CC(=O)N[C@H](CS)C(=O)N[C@H](C)C(=O)N[C@H](CCCCN)C(=O)N[C@H](CCCNC(=N)N)C(=O)N[C@H](CCCNC(=N)N)C(=O)N[C@H](C)C(=O)N[C@H](CCCNC(=N)N)C(N)=O [SEQ ID NO: 72, Ac-cakrrar-NH2] (Ac-[dC][dA][dK][dR][dR][dA][dR]-NH2) | Histamine in vitro Fold change of non-treated at 10 uM [2]: 1.1 fold |
| 35 | CC(=O)N[C@H](CS)C(=O)N[C@@H](C(=O)N[C@H](CCCNC(=N)N)C(=O)N[C@H](CCCNC(=N)N)C(=O)N[C@H](CCCNC(=N)N)C(=O)N[C@@H](C(=O)N[C@H](CCCNC(=N)N)C(N)=O)C(C)C)C(C)C [SEQ ID NO: 65, Ac-cvrrrvr-NH2] (Ac-[dC][dV][dR][dR][dR][dV][dR]-NH2) | – |
| > 1000 | CC(=O)N[C@H](C)C(=O)N[C@H](CCCNC(=N)N)C(=O)N[C@H](CCCNC(=N)N)C(=O)N[C@H](CCCNC(=N)N)C(=O)N[C@H](C)C(=O)N[C@H](CCCNC(=N)N)C(N)=O [SEQ ID NO: 29, Ac-arrrar-NH2] (Ac-[dA][dR][dR][dR][dA][dR]-NH2) | potency to activate the human CaSR in vitro ([1]; HEK-293 cell assay): dramatically reduced the ability of the compound to activate the CaSR; PTH-lowering activity in normal rats (plasma PTH; 9 mg/kg IV bolus, FIG. 2B): did not reduce PTH concentration |
